According to patent US20080108642A1 (Tsinghua University, priority 2006, published 2008):
“Also recorded” adds a separate entry of the source. Where a name gives a salt, the structure may show the parent alone.

Legend:
[1] = LC-DAD-MS analysis of ingredients in rat plasma after oral administration of QLY decoction; conditions: 20 minutes after oral administration of QLY decoction
Source text: Liquid chromatography simultaneously coupled with a diode array detector and a mass spectrometry detector (LC-DAD-MS) was used to analyze the pharmaceutical ingredients in rat plasma at different time points after oral administration of QLY decoction in order to determine the ingredients in QLY that could be absorbed into the body through metabolism. In this experiment, performed were comparison analyses of chromatogram and mass spectrum of QLY decoction and those of decoction of each of the constituent herbs of QLY, comparison analyses of chromatogram and mass spectrum of QLY decoction and those of QLY decoction plus blank plasma, comparison analyses of chromatogram and mass spectrum of blank plasma and those of post-administration plasma (blood sample taken at 20 min, 1 h, and 2 h respectively after oral administration of QLY decoction).

[2] = test system: Human Umbilical Vein Endothelial Cells (HUVEC); assay: Suppression of endothelial cell proliferation, separate and combined use (equivalent curve / response surface method); assay type: cell-based; conditions: separate use
Source text: Human Umbilical Vein Endothelial Cells (HUVEC) were employed in the experiment and the suppression rate on endothelial cell proliferation were monitored. Classical methods including equivalent curve method and the response surface method were used and the amount-effect curves were plotted.

Structure (SMILES)	detected in plasma of rats after oral administration of QLY [1]	effect on suppressing proliferation of endothelial cells (anti-angiogenesis activity) [2]	effect on suppressing proliferation of endothelial cells (anti-angiogenesis activity) ([2]; hydrochloride)
CN1C[C@@H]2C[C@H](C1)c1cccc(=O)n1C2 [N-methylcytisine]	small amounts		
O=C1CCCC2C3CCCN4CCCC(CN12)C34 (stereo not drawn) [matrine, Matrine]	detected	relatively strong; also recorded: remarkable effect	
COC1=C[C@@H]2[C@@H]3Cc4ccc(OC)c(O)c4[C@]2(CCN3C)CC1=O [sinomenine hydrochloride]			relatively strong; also recorded: remarkable effect
COC1=CC2C3Cc4ccc(OC)c(O)c4[C@]2(CCN3C)CC1=O (stereo partly drawn) [sinomenine, Sinomenine]	detected		
O=C1C=CC[C@@H]2[C@H]3CCCN4CCC[C@@H](CN12)[C@@H]34 [sophocarpine]	small amounts		
